Laboratory results taken from publication PMC6060094, “Structural determinants of the catalytic mechanism of Plasmodium CCT, a key enzyme of malaria lipid biosynthesis” (Scientific Reports, 2018).
Like-named read-outs stand apart in the source and are kept apart here.

Legend:
[1] = molecular target: T1, PfCCT(528–795) (Plasmodium falciparum, UniProt P49587, DEL194-211); assay: Equilibrium ligand binding by isothermal titration calorimetry (ITC); details: 20 °C
T1 construct: previously described PfCCT(528–795) lacking the lysine-rich Plasmodium specific loop (720–737); His-tag; made in house
Experimental: (§1) Calorimetric measurements were performed on an ITC 200 titration calorimeter (Malvern) at 20 °C. The protein samples were dialyzed against 20 mM HEPES/NaOH pH 7.5, 100 mM NaCl, including 0.5 mM Tris(2-carboxyethyl)phosphine (TCEP) as reducing agent. CTP and CDPCho were diluted from a concentrated stock into the dialysis buffer with subsequent pH adjustment. Concentration of the titrating nucleotide ligands were determined using molar extinction coefficients 9000 M^−1 cm^−1 at 271 nm for CTP and 5000 M^−1 cm^−1 at 260 nm for CDPCho[16]. In the experimental setup, the cell of the instrument was filled with protein and the syringe with the ligand. The titrations typically included 19 steps of injection with 2 μl of ligand per injection spaced 180 s apart from each other, with the injection syringe rotating at 750 r.p.m. The data were analyzed using MICROCAL ORIGIN software following the directions of the manufacturer. To account for dilution, the invariant integrated heat value of the last 3–5 data points was subtracted from all data points. The one set of independent sites binding model was applied to data for determination of thermodynamic parameters: dissociation constant (Kd), stoichiometry (N), enthalpy (ΔH) and entropy (ΔS). Due to the low apparent affinity, the N value was fixed to a constant value of 1 in CTP titrations to PfCCT(528–795) K663A according to the low c value ITC data analysis protocol[40],[41]. For CTP and CDPCho titrations of PfCCT(528–795) K663A, and CTP titrations of T761A and T762A variants of PfCCT(528-795), mean and SD from two independent experiments are provided, whereas for CDPCho titrations of PfCCT(581–775) and PfCCT(528-795) mean and SD from three independent experiments are provided. For PfCCT(528-795) (Y626F/Q636A), errors of model fit to data of a single ligand binding experiment are given.

[2] = molecular target: T2, PfCCT(528–795) Y626F/Q636A (Plasmodium falciparum, UniProt Q8IEE9, DEL720-737/Q636A/Y626F); assay: as above; details: 20 °C, pH 7.5, single experiment, errors of model fit
T2 sequence (Q8IEE9 528-795, stated change not applied): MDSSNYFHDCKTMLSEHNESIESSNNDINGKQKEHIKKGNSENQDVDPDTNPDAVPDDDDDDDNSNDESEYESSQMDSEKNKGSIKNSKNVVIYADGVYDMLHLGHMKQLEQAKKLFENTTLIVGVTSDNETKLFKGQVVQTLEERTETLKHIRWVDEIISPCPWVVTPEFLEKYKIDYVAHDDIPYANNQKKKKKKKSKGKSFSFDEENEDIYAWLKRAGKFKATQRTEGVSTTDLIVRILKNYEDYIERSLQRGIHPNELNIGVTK
Experimental: as §1

[3] = molecular target: T3, PfCCT(528–795) K663A (Plasmodium falciparum, UniProt Q8IEE9, DEL720-737/K663A); assay: as above; details: 20 °C
T3 sequence (Q8IEE9 528-795, stated change not applied): as above
Experimental: as §1

[4] = molecular target: T4, PfCCT(581–775) (Plasmodium falciparum, UniProt P49587, DEL194-211); assay: Continuous coupled colorimetric enzyme activity assay (PPase/PNP/MESG); format: biochemical; details: CTP varied 100 μM–2 mM, ChoP fixed 5 mM
T4 construct: The PfCCT(581–775) construct was obtained using previously described PfCCT(528–795); 6xHis (TEV-cleavable) (N, cleaved yes); made in house; host or cells: E. coli BL21 (DE3)
Experimental: (§2) Enzyme activity measurements were performed as described previously, using a continuous coupled colorimetric assay with pyrophosphatase (PPase), purine nucleoside phosphorylase (PNP) auxiliary enzymes and the auxiliary substrate 7-methyl-6-thioguanosine (MESG)[16],[30],[39]. For CTP substrate titrations, CTP concentration was varied between 100 μM and 2 mM while ChoP concentration was kept constant at 5 mM. For ChoP titrations, ChoP concentration was varied between 0.5 mM and 20 mM while CTP concentration was kept constant at 1 mM. Initial velocities were calculated from the first 10% of the progress curves using phosphate calibration as reference. Due to the low activity of PfCCT(581–775) and PfCCT(528–795) T761A, T762A variants, the enzyme was used at 10 μM concentration and the slope of the absorbance change was determined after monitoring the reaction for 20 minutes. For measurements with PfCCT(528–795) K663A the following reagent concentrations were used in the enzyme assay: [PPase] = 0.17 U·ml^−1, [PNP] = 1.25 U·ml^−1, [MESG] = 0.1 mM, [Mg^2+] = 5 mM and [PfCCT(528–795) K663A] = 10 μM, to yield adequate signal-to-noise ratio (S/N > 10). Three independent experiments were performed for CTP and ChoP kinetic titrations of PfCCT(528–795) K663A. Global fit of CTP and ChoP kinetic titrations for each enzyme variant was performed in Origin 8.6 using Michaelis–Menten equation, to yield a single kcat parameter.

[5] = molecular target: T2, PfCCT(528–795) Y626F/Q636A; assay: as above; format: biochemical
Experimental: as §2

[6] = molecular target: T3, PfCCT(528–795) K663A; assay: as above; format: biochemical; details: refers to a phosphohydrolase activity; ChoP fixed 5 mM; read-out: KM,CTP
Source text: The presence of Cho in the active site at least partially stabilizes the K663 side chain, while ChoP or CDPCho accommodation renders this residue fully visualized. The K663 terminal amino moiety points towards the phosphate group of ChoP or both phosphate moieties of CDPCho, in somewhat different conformations (Fig. 3e and Supplementary Fig. S3). These structural insights showing variable detection and interactions of K663 prompted us to an in-depth definition of its role throughout the course of the catalytic mechanism. We interrogated the functionality of this residue by site directed mutagenesis followed by biochemical analysis. […] The enzymatic activity was monitored by a coupled pyrophosphatase (PPase) assay and consisted of two consecutive steps: the cleavage of the byproduct pyrophosphate into two phosphates and the addition of phosphates to a nucleotide derivative, resulting a chromophore substance. […] The accumulation of free phosphate in the absence of the substrate, ChoP, argued for a CTP phosphohydrolase (CTP → CDP + Pi) activity of the K663A mutant (Supplementary Fig. S4). […] For reliable characterization of ligand interactions of this lysine, we measured the equilibrium ligand binding of CDPCho and CTP to PfCCT(528–795) K663A (Table 2 and Supplementary Fig. S4). […]

[7] = molecular target: PfCCT(528–795) T761A; assay: Equilibrium ligand binding by isothermal titration calorimetry (ITC); design: species or system Plasmodium falciparum; details: 20 °C, pH 7.5, read-out: Kd,CTP
Experimental: as §1, with “Due to the low apparent affinity, the N value was fixed to a constant value of 1 in CTP titrations to PfCCT(528–795) K663A according to the low c value ITC data analysis protocol[40],[41]. For CTP and CDPCho titrations of PfCCT(528–795) K663A, and CTP titrations of T761A and T762A variants of PfCCT(528-795), mean and SD from two independent experiments are provided, whereas for CDPCho titrations of PfCCT(581–775) and PfCCT(528-795) mean and SD from three independent experiments are provided. For PfCCT(528-795) (Y626F/Q636A), errors of model fit to data of a single ligand binding experiment are given.” left out

[8] = molecular target: PfCCT(528–795) T762A; assay: as above; design: species or system Plasmodium falciparum; details: 20 °C, pH 7.5, read-out: Kd,CTP
Experimental: as §1, with “Due to the low apparent affinity, the N value was fixed to a constant value of 1 in CTP titrations to PfCCT(528–795) K663A according to the low c value ITC data analysis protocol[40],[41]. For CTP and CDPCho titrations of PfCCT(528–795) K663A, and CTP titrations of T761A and T762A variants of PfCCT(528-795), mean and SD from two independent experiments are provided, whereas for CDPCho titrations of PfCCT(581–775) and PfCCT(528-795) mean and SD from three independent experiments are provided. For PfCCT(528-795) (Y626F/Q636A), errors of model fit to data of a single ligand binding experiment are given.” left out

[9] = tested on: PfCCT(528–795) T761A; assay: Continuous coupled colorimetric enzyme activity assay (PPase/PNP/MESG); format: biochemical, Plasmodium falciparum
Experimental: as §2

[10] = tested on: PfCCT(528–795) T762A; assay: as above; format: biochemical, Plasmodium falciparum
Experimental: as §2

[11] = molecular target: T4, PfCCT(581–775); assay: Saturation Transfer Difference NMR (STD-NMR) ligand binding; details: 50 µM PfCCT(581-775), 283 K
Experimental: In order to provide structural insights into the mechanism of action of PfCCT, we set out to crystallize the constitutively active C-terminal catalytic domain of PfCCT. Several constructs were tested and our attempts were successful only in case of PfCCT(581–775) that corresponds to the exact region visible in the crystal structure of RnCCT (PDB: 3HL4)[20] (Fig. 1a). […] (Table 1 and Supplementary Fig. S1). We further assessed the functionality of PfCCT(581–775) by characterizing its substrate and product binding ability. […] Saturation Transfer Difference Nuclear Magnetic Resonance (STD-NMR) experiments indicated STD signal of CTP, ChoP and CDPCho bound to PfCCT(581–775) at 1 mM, 4 mM and 1 mM concentrations, respectively (Supplementary Fig. S1). This latter result is consistent with previously observed unusually low ChoP affinity of PfCCT[16]. We concluded that PfCCT(581–775) is compatible with substrate and product recognition and may be amenable to structural studies provided that its compromised enzymatic function is taken into account in structure-based interpretations. It is likely that the drop of PfCCT(581–775) enzyme activity is due to the elimination of the C-terminal flanking part as similarly located truncations in the RnCCT catalytic domain also led to severe loss of activity[28],[29]. […]
Kinetic data are fitted with the Michaelis–Menten equation. […] Values of the measured kinetic and thermodynamic parameters and their errors […]
(black) of 50 µM PfCCT(581-775) in 20 mM Tris/HCl pH 7.5, 150 mM NaCl and 2 mM EtSH are shown in presence of c) 1 mM CTP, d) 4 mM ChoP and e) 1 mM CDPCho. […] The 1D 1H STD-NMR spectra were recorded on a Bruker 500 MHz instrument at 283 K with 256 scans and selective saturation of protein resonances at 0.922 ppm using a series of Gaussian shaped pulses (20 ms, 1 ms delay between the pulses). […] All 1D 1H NMR spectra were recorded […]

[12] = molecular target: T1, PfCCT(528–795); design: method as in Nagy et al.[16]; details: ref Nagy et al.[16], cited from earlier work
[13] = CTP varied 100 μM–2 mM, ChoP fixed 5 mM, read-out: KM,CTP
[14] = ChoP varied 0.5–20 mM, CTP fixed 1 mM, read-out: KM,ChoP

Nc1ccn([C@@H]2O[C@H](COP(=O)(O)OP(=O)(O)OP(=O)(O)O)[C@@H](O)[C@H]2O)c(=O)n1 [CTP]
ΔGCTP ([1]; pH 7.5): -5.7 ± 0.1 kcal/mol | ΔHCTP ([1]; pH 7.5): -8.6 ± 0.3 kcal/mol | −TΔSCTP ([1]; pH 7.5): 3.0 ± 0.4 kcal/mol | Kd ([1]; pH 7.5, read-out: Kd,CTP): 60 ± 2 µM | ΔGCTP [2]: -5.7 ± 0.1 kcal/mol | ΔHCTP [2]: -10.8 ± 0.1 kcal/mol | −TΔSCTP [2]: 5.1 ± 0.2 kcal/mol | Kd ([2]; read-out: Kd,CTP): 60 ± 2 µM | ΔGCTP ([3]; pH 7.5, N fixed to 1): -4.4 ± 0.1 kcal/mol | −TΔSCTP ([3]; pH 7.5, N fixed to 1): -10.5 ± 0.6 kcal/mol | Kd ([3]; pH 7.5, N fixed to 1 (low c value protocol), read-out: Kd,CTP): 520 ± 50 µM | Km [4]: 1100 µM | Km [5, 13]: 170 ± 10 µM | Km [6]: 70 ± 20 µM | Kd [7]: 170 ± 35 µM | Kd [8]: 170 ± 12 µM | Km [9, 13]: 1270 µM | Km [10, 13]: 610 ± 70 µM | STD-NMR signal of ligand bound to enzyme ([11]; ligand 1 mM): STD signal | Km ([12]; read-out: KM,CTP): 170 ± 20 µM

C[N+](C)(C)CCOP(=O)(O)O [ChoP, phosphocholine]
Km [5, 14]: 1600 µM | Km [9, 14]: 3700 µM | Km [10, 14]: 2100 µM | STD-NMR signal of ligand bound to enzyme ([11]; ligand 4 mM): STD signal | Km ([12]; read-out: KM,ChoP): 1950 µM
